Biological target: T1, human PAH with the R408W mutation (Homo sapiens, UniProt P00439, R408W)
T1 construct: expressed in transfected cells
T1 sequence (P00439 1-452 R408W): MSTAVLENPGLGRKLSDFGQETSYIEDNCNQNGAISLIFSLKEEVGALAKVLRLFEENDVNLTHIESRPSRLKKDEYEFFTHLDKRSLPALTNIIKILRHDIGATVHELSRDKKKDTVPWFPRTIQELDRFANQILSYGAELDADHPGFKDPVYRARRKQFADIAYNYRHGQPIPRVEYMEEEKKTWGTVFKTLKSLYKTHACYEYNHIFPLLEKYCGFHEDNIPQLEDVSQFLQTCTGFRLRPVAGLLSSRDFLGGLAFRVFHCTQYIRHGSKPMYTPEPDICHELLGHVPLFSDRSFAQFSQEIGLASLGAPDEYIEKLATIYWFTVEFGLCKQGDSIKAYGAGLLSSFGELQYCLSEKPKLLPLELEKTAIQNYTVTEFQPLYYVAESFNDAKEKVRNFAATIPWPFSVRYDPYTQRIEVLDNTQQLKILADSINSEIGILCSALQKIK
Test: Cell Based Phenylalanine Flux Assay
Conditions: A375 cells expressing human R408W PAH; 24 hrs compound incubation; 13C-Tyrosine by LC-MS; average where tested multiple times; read-out: AC50
Experimental: Compounds were resuspended in DMSO, and 2-fold serial dilutions were performed to generate a 10-point dose curve. Compounds were added to plated cells in a total volume of 100 pal, and a final DMSO concentration of 0.5%. Each compound was tested in duplicate. Following compound addition, cells were placed in a 5% CO2, 37° C. tissue culture incubator for 24 hrs. After the incubation period, 20 μM sepiapterin and 800 μM 13C9,15N-Phenylalanine were added. After 4 hours, cell media was removed. An aliquot of 10 μl of cell media was combined with 200 μl of extraction buffer (80% acetonitrile/20% H2O) for each well. Determination of ^13C-Tyrosine concentration was assessed by liquid chromatography mass spectrometry.
Where a compound was tested multiple times, the average value of the tests is reported.

| SMILES | AC50 |
| --- | --- |
| O=C(c1nnc(-c2ccc(F)cc2F)o1)N1CCc2[nH]cnc2[C@H]1c1nc2ccccc2s1 [Example 1811] | < 500 nM |
| O=C(c1nnc(-c2ccc(F)cc2F)o1)N1CCc2[nH]cnc2[C@@H]1c1nc2ccccc2s1 [Example 1812, (R)-(4-(benzo[d]thiazol-2-yl)-6,7-dihydro-1H-imidazo[4,5-c]pyridin-5(4H)-yl)(5-(2,4-difluorophenyl)-1,3,4-oxadiazol-2-yl)methanone] | 500 to 1000 nM |
| Cn1ncnc1C(=O)N1CCc2[nH]cnc2[C@H]1c1nc2ccccc2s1 [Example 1813] | 500 to 1000 nM |
| Cn1ncnc1C(=O)N1CCc2[nH]cnc2[C@@H]1c1nc2ccccc2s1 [Example 1814, (R)-(4-(benzo[d]thiazol-2-yl)-6,7-dihydro-1H-imidazo[4,5-c]pyridin-5(4H)-yl)(1-methyl-1H-1,2,4-triazol-5-yl)methanone] | > 5000 nM |
| O=C(c1nnc(-c2cnn(C3CCC3)c2)o1)N1CCc2[nH]cnc2[C@@H]1c1nc2ccccc2s1 [Example 1827, (R)-(4-(benzo[d]thiazol-2-yl)-6,7-dihydro-1H-imidazo[4,5-c]pyridin-5(4H)-yl)(5-(1-cyclobutyl-1H-pyrazol-4-yl)-1,3,4-oxadiazol-2-yl)methanone] | 1000 to 5000 nM |
| O=C(c1nnc(-c2cnn(C3CCC3)c2)o1)N1CCc2[nH]cnc2[C@H]1c1nc2ccccc2s1 [Example 1828] | < 500 nM |
| O=C(c1nnc(-c2ccc(C(F)(F)F)cn2)o1)N1CCc2[nH]cnc2[C@@H]1c1nc2ccccc2s1 [Example 1829, (R)-(4-(benzo[d]thiazol-2-yl)-6,7-dihydro-1H-imidazo[4,5-c]pyridin-5(4H)-yl)(5-(5-(trifluoromethyl)pyridin-2-yl)-1,3,4-oxadiazol-2-yl)methanone] | 1000 to 5000 nM |
| O=C(c1nnc(-c2ccc(C(F)(F)F)cn2)o1)N1CCc2[nH]cnc2[C@H]1c1nc2ccccc2s1 [Example 1830] | 500 to 1000 nM |
| O=C(c1oc(COC(F)(F)F)nc1C(F)F)N1CCc2[nH]cnc2[C@H]1c1nc2ccccc2s1 [Example 1831] | < 500 nM |
| CC(C)(F)c1nnc(C(=O)N2CCc3[nH]cnc3[C@@H]2c2nc3ccccc3s2)o1 [Example 1833, (R)-(4-(benzo[d]thiazol-2-yl)-6,7-dihydro-1H-imidazo[4,5-c]pyridin-5(4H)-yl)(5-(2-fluoropropan-2-yl)-1,3,4-oxadiazol-2-yl)methanone] | 1000 to 5000 nM |
| CC(C)(F)c1nnc(C(=O)N2CCc3[nH]cnc3[C@H]2c2nc3ccccc3s2)o1 [Example 1834] | < 500 nM |
| O=C(C1CN(c2ccc(F)cn2)C1)N1CCc2[nH]cnc2[C@H]1c1nc2ccccc2s1 [Example 1837] | 1000 to 5000 nM |
| O=C(C1CN(c2ccc(F)cn2)C1)N1CCc2[nH]cnc2[C@@H]1c1nc2ccccc2s1 [Example 1838, (R)-(4-(benzo[d]thiazol-2-yl)-6,7-dihydro-1H-imidazo[4,5-c]pyridin-5(4H)-yl)(1-(5-fluoropyridin-2-yl)azetidin-3-yl)methanone] | > 5000 nM |
| Cn1nccc1C(=O)N1CCc2[nH]cnc2[C@H]1c1nc2ccccc2s1 [Example 1839] | < 500 nM |
| Cn1nccc1C(=O)N1CCc2[nH]cnc2[C@@H]1c1nc2ccccc2s1 [Example 1840, (R)-(4-(benzo[d]thiazol-2-yl)-6,7-dihydro-1H-imidazo[4,5-c]pyridin-5(4H)-yl)(1-methyl-1H-pyrazol-5-yl)methanone] | > 5000 nM |

Next, values leading:

| AC50 | SMILES |
| --- | --- |
| < 500 nM | CC(C)(O)c1nc(C(F)F)c(C(=O)N2CCc3[nH]cnc3[C@H]2c2nc3ccccc3s2)o1 [Example 1809] |
| 1000 to 5000 nM | CC(C)(O)c1nc(C(F)F)c(C(=O)N2CCc3[nH]cnc3[C@@H]2c2nc3ccccc3s2)o1 [Example 1810, (R)-(4-(benzo[d]thiazol-2-yl)-6,7-dihydro-1H-imidazo[4,5-c]pyridin-5(4H)-yl)(4-(difluoromethyl)-2-(2-hydroxypropan-2-yl)oxazol-5-yl)methanone] |
| 1000 to 5000 nM | O=C(c1cc(C(F)(F)F)n[nH]1)N1CCc2[nH]cnc2[C@@H]1c1nc2c(F)cccc2s1 [Example 1815, (R)-(4-(4-fluorobenzo[d]thiazol-2-yl)-6,7-dihydro-1H-imidazo[4,5-c]pyridin-5(4H)-yl)(3-(trifluoromethyl)-1H-pyrazol-5-yl)methanone] |
| 1000 to 5000 nM | O=C(c1cc(C(F)(F)F)n[nH]1)N1CCc2[nH]cnc2[C@H]1c1nc2c(F)cccc2s1 [Example 1816, (S)-(4-(4-fluorobenzo[d]thiazol-2-yl)-6,7-dihydro-1H-imidazo[4,5-c]pyridin-5(4H)-yl)(3-(trifluoromethyl)-1H-pyrazol-5-yl)methanone] |
| < 500 nM | O=C(c1ccnn1C(F)F)N1CCc2[nH]cnc2[C@H]1c1nc2ccccc2s1 [Example 1817] |
| 1000 to 5000 nM | O=C(c1ccnn1C(F)F)N1CCc2[nH]cnc2[C@@H]1c1nc2ccccc2s1 [Example 1818, (R)-(4-(benzo[d]thiazol-2-yl)-6,7-dihydro-1H-imidazo[4,5-c]pyridin-5(4H)-yl)(1-(difluoromethyl)-1H-pyrazol-5-yl)methanone] |
| 500 to 1000 nM | Cn1ncc(C(=O)N2CCc3[nH]cnc3[C@H]2c2nc3ccccc3s2)c1C(F)F [Example 1819] |
| > 5000 nM | Cn1ncc(C(=O)N2CCc3[nH]cnc3[C@@H]2c2nc3ccccc3s2)c1C(F)F [Example 1820, (R)-(4-(benzo[d]thiazol-2-yl)-6,7-dihydro-1H-imidazo[4,5-c]pyridin-5(4H)-yl)(5-(difluoromethyl)-1-methyl-1H-pyrazol-4-yl)methanone] |
| < 500 nM | Cn1cc(C(=O)N2CCc3[nH]cnc3[C@H]2c2nc3ccccc3s2)c(C(F)F)n1 [Example 1821] |
| 1000 to 5000 nM | Cn1cc(C(=O)N2CCc3[nH]cnc3[C@@H]2c2nc3ccccc3s2)c(C(F)F)n1 [Example 1822, (R)-(4-(benzo[d]thiazol-2-yl)-6,7-dihydro-1H-imidazo[4,5-c]pyridin-5(4H)-yl)(3-(difluoromethyl)-1-methyl-1H-pyrazol-4-yl)methanone] |
| 1000 to 5000 nM | O=C(c1nnc(-c2cnn(C(F)F)c2)o1)N1CCc2[nH]cnc2[C@@H]1c1nc2c(F)cccc2s1 [Example 1823, (R)-(5-(1-(difluoromethyl)-1H-pyrazol-4-yl)-1,3,4-oxadiazol-2-yl)(4-(4-fluorobenzo[d]thiazol-2-yl)-6,7-dihydro-1H-imidazo[4,5-c]pyridin-5(4H)-yl)methanone] |
| < 500 nM | O=C(c1nnc(-c2cnn(C(F)F)c2)o1)N1CCc2[nH]cnc2[C@H]1c1nc2c(F)cccc2s1 [Example 1824, (S)-(5-(1-(difluoromethyl)-1H-pyrazol-4-yl)-1,3,4-oxadiazol-2-yl)(4-(4-fluorobenzo[d]thiazol-2-yl)-6,7-dihydro-1H-imidazo[4,5-c]pyridin-5(4H)-yl)methanone] |
| 500 to 1000 nM | Cn1ccc(-c2nnc(C(=O)N3CCc4[nH]cnc4[C@@H]3c3nc4c(F)cccc4s3)o2)n1 [Example 1825, (R)-(4-(4-fluorobenzo[d]thiazol-2-yl)-6,7-dihydro-1H-imidazo[4,5-c]pyridin-5(4H)-yl)(5-(1-methyl-1H-pyrazol-3-yl)-1,3,4-oxadiazol-2-yl)methanone] |
| < 500 nM | Cn1ccc(-c2nnc(C(=O)N3CCc4[nH]cnc4[C@H]3c3nc4c(F)cccc4s3)o2)n1 [Example 1826, (S)-(4-(4-fluorobenzo[d]thiazol-2-yl)-6,7-dihydro-1H-imidazo[4,5-c]pyridin-5(4H)-yl)(5-(1-methyl-1H-pyrazol-3-yl)-1,3,4-oxadiazol-2-yl)methanone] |
| 1000 to 5000 nM | O=C(c1oc(COC(F)(F)F)nc1C(F)F)N1CCc2[nH]cnc2[C@@H]1c1nc2ccccc2s1 [Example 1832, (R)-(4-(benzo[d]thiazol-2-yl)-6,7-dihydro-1H-imidazo[4,5-c]pyridin-5(4H)-yl)(4-(difluoromethyl)-2-((trifluoromethoxy)methyl)oxazol-5-yl)methanone] |
| 1000 to 5000 nM | CC(C)(F)c1nnc(C(=O)N2CCc3[nH]cnc3[C@@H]2c2nc3c(F)cccc3s2)o1 [Example 1835, (R)-(4-(4-fluorobenzo[d]thiazol-2-yl)-6,7-dihydro-1H-imidazo[4,5-c]pyridin-5(4H)-yl)(5-(2-fluoropropan-2-yl)-1,3,4-oxadiazol-2-yl)methanone] |
| < 500 nM | CC(C)(F)c1nnc(C(=O)N2CCc3[nH]cnc3[C@H]2c2nc3c(F)cccc3s2)o1 [Example 1836, (S)-(4-(4-fluorobenzo[d]thiazol-2-yl)-6,7-dihydro-1H-imidazo[4,5-c]pyridin-5(4H)-yl)(5-(2-fluoropropan-2-yl)-1,3,4-oxadiazol-2-yl)methanone] |
| < 500 nM | Cn1cc(C(=O)N2CCc3[nH]cnc3[C@H]2c2nc3c(F)cccc3s2)c(C(F)F)n1 [Example 1841, (S)-(3-(difluoromethyl)-1-methyl-1H-pyrazol-4-yl)(4-(4-fluorobenzo[d]thiazol-2-yl)-6,7-dihydro-1H-imidazo[4,5-c]pyridin-5(4H)-yl)methanone] |
| 1000 to 5000 nM | Cn1cc(C(=O)N2CCc3[nH]cnc3[C@@H]2c2nc3c(F)cccc3s2)c(C(F)F)n1 [Example 1842, (R)-(3-(difluoromethyl)-1-methyl-1H-pyrazol-4-yl)(4-(4-fluorobenzo[d]thiazol-2-yl)-6,7-dihydro-1H-imidazo[4,5-c]pyridin-5(4H)-yl)methanone] |

From patent publication US20250171438A1 (Agios Pharmaceuticals, Inc., priority 2022, published 2025)
